Assay results from publication PMC4629031, “Evaluation of the Inhibitory Effects of Bavachinin and Bavachin on Human Monoamine Oxidases A and B” (Evidence-based Complementary and Alternative Medicine : eCAM, 2015).
pKi: −log10 of the molar value.

Assays:
[1] = target: T1, human monoamine oxidase A (hMAO-A) (Homo sapiens, UniProt P21397); assay: MAO-Glo luminescent assay with recombinant enzyme; Michaelis-Menten/Lineweaver-Burk kinetics (IC50 […]); type: biochemical
T1 construct: gene MAOA
T1 sequence (P21397 1-527): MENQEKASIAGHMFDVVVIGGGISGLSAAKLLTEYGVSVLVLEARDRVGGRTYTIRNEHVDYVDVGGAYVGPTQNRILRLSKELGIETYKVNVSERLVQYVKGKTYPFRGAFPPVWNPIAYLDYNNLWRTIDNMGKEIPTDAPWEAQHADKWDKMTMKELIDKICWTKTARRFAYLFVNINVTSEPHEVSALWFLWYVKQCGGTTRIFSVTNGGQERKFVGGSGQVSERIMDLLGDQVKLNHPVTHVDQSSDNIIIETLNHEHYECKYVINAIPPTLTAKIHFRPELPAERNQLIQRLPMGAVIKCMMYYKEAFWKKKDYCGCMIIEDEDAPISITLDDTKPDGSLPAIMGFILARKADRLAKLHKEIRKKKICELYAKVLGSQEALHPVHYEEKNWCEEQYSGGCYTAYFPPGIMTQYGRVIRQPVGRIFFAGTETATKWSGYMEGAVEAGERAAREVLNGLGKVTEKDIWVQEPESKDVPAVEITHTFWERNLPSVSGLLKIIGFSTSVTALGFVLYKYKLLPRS

[2] = target: T2, human monoamine oxidase B (hMAO-B) (Homo sapiens, UniProt P27338); assay: as above; type: biochemical
T2 construct: gene MAOB
T2 sequence (P27338 2-520): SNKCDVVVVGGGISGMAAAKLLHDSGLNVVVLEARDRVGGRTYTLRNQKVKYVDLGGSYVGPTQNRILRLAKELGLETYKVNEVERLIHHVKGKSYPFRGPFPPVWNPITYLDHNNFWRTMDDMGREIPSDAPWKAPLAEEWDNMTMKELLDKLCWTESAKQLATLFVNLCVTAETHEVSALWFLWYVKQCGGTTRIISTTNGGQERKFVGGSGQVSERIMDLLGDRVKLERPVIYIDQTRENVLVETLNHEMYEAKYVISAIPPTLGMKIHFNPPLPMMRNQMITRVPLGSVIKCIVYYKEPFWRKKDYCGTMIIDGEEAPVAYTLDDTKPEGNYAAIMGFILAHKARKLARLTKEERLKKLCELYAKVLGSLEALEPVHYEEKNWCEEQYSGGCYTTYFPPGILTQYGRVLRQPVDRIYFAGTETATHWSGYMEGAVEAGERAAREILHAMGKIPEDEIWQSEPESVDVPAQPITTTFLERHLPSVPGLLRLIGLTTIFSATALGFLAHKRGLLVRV

COc1cc2c(cc1CC=C(C)C)C(=O)C[C@@H](c1ccc(O)cc1)O2 [BNN, 4′-hydroxy-7-methoxy-6-(3-methyl-2-butenyl) flavanone]
pKi [1]: 4.02
pKi [2]: 5.04
